Measurements published in ChEMBL document CHEMBL1121775, “Synthesis and antimalarial effects of N2-aryl-N4-[(dialkylamino)alkyl]- and N4-aryl-N2-[(dialkylamino)alkyl]-2,4-quinazolinediamines” (J Med Chem, 1981).
“And” between values parts separate entries of the source, which are not always exact repeats. Identical values can stand only once.

Tests used:
[1] = tested on: Plasmodium berghei; assay: Antimalarial effect against trophozoite-induced Plasmodium berghei in mice (Mus musculus) after 40 mg/kg subcutaneous dose; format: functional
[2] = tested on: Plasmodium berghei; assay: Antimalarial effect against trophozoite-induced Plasmodium berghei in mice (Mus musculus) at 160 mg/kg subcutaneous dose; format: functional
[3] = tested on: Plasmodium berghei; assay: Antimalarial effect against trophozoite-induced Plasmodium berghei in mice (Mus musculus) after 20 mg/kg subcutaneous dose; format: functional
[4] = tested on: Mus musculus; assay: Number of mice cured at a dose of 640 mg/kg sc; format: functional; settings: route subcutaneous
[5] = tested on: Plasmodium berghei; assay: Antimalarial effect against trophozoite-induced Plasmodium berghei in mice (Mus musculus) at 80 mg/kg subcutaneous dose; format: functional
[6] = tested on: Plasmodium berghei; assay: Antimalarial effect against trophozoite-induced Plasmodium berghei in mice (Mus musculus) at 320 mg/kg subcutaneous dose; format: functional
[7] = tested on: Plasmodium berghei; assay: (§1) Antimalarial effect against trophozoite-induced Plasmodium berghei in mice (Mus musculus) at 640 mg/kg subcutaneous dose; format: functional
[8] = tested on: Plasmodium berghei; assay: as §1; format: functional; remark: listed apart in the source
[9] = tested on: Plasmodium berghei; assay: Antimalarial activity against trophozoite-induced Plasmodium berghei in mice (Mus musculus) at 160 mg/kg subcutaneous dose; format: functional
[10] = tested on: Mus musculus; assay: Number of mice cured at a subcutaneous dose of 160 mg/kg.; format: functional
[11] = tested on: Mus musculus; assay: Number of mice cured at a subcutaneous dose of 320 mg/kg.; format: functional
[12] = tested on: Mus musculus; assay: Number of toxic deaths at a dose of 640 mg/kg; format: toxicity, organism-based; design: dose 640 mg/kg; settings: in vivo
[13] = tested on: Plasmodium berghei; assay: Antimalarial activity against trophozoite-induced Plasmodium berghei in mice (Mus musculus); format: functional

Row | Compound | MST ([2]; 160 mg/kg) | MST [3] [days] | MST [5] [days] | MST [6] [days] | MST [7] [days] | MST [1] [days] | MST [2] [days] | also measured
1 | CCN(CC)C1CCC(Nc2nc(Nc3cc(Cl)cc(Cl)c3)c3ccccc3n2)CC1 (stereo not drawn) | 0.7 days and 0.5 days | 0.3 | 0.5 | – | – | – | – | MST ([1]; 40 mg/kg): 0.5 days and 0.3 days; No. of survivals [4]: 5; MST ([6]; 320 mg/kg): 7.9 day and 8.1 MST
2 | CCN1CCCC(Nc2nc(Nc3cc(Cl)cc(Cl)c3)c3ccccc3n2)C1 (stereo not drawn) | 0.4 days and 0.3 days | 0.4 | 0.2 | 2.4 | – | – | – | MST ([1]; 40 mg/kg): 0.2 days and 0.1 days; MST ([7]; 640 mg/kg): 4.4 days and 6.3 days
3 | CCN(CC)CCCC(C)Nc1nc(Nc2ccc(O)c(CN(CC)CC)c2)c2ccccc2n1 (stereo not drawn) | 3.8 days and 1.6 days | 0 | 1.4 | 7.4 | 5.6 | – | – | MST ([1]; 40 mg/kg): 0.6 days and 0.2 days; No. of survivals [4]: 3; MST [8]: 3.1 days
4 | CCN(CC)CCNc1nc(Nc2ccc(C(F)(F)F)cc2)c2ccccc2n1 | – | 0.2 | -0.2 | 2.8 | – | – | – | MST ([7]; 640 mg/kg): 5.3 days and 5.5 days
5 | CN(C)c1ccc(Nc2nc(NC3CCC(N(C)C)CC3)nc3ccccc23)cc1 (stereo not drawn) | – | – | – | – | 1.1 | -0.2 | 0.6 | –
6 | CCN(CC)CCCNc1nc(Nc2ccc(C(F)(F)F)cc2)c2ccccc2n1 | 0.6 days and 0.3 days | 0 | 0.8 | 9.2 | – | – | – | MST ([7]; 640 mg/kg): 10.1 days and 7.5 days
7 | CN(C)C1CCC(Nc2nc(Nc3ccc(C(F)(F)F)cc3)c3ccccc3n2)CC1 (stereo not drawn) | – | – | – | – | 0.7 | 1.1 | 0.7 | –
8 | OC1CCCN(CCCNc2nc(Nc3cccc4nsnc34)nc3ccccc23)C1 (stereo not drawn) | – | – | – | – | 0 | 0 | 0 | –
9 | CCN1CCCC(Nc2nc(Nc3ccc(Cl)c(Cl)c3)nc3c(Cl)cc(Cl)cc23)C1 (stereo not drawn) | – | 0.3 | – | – | – | 0.3 | 0.5 | –
10 | CN(C)C1CCC(Nc2nc(Nc3cccc(Br)c3)c3ccccc3n2)CC1 (stereo not drawn) | – | – | – | – | 0.7 | -0.1 | 0.7 | –
11 | CN(C)C1CCC(Nc2nc(Nc3cc(Cl)cc(Cl)c3)c3ccccc3n2)CC1 (stereo not drawn) | – | -0.2 | 1.2 | – | – | 0 | 2.6 | No. of survivals [4]: 5
12 | CCN1CCC(CNc2nc(Nc3ccc(Cl)c(Cl)c3)c3ccccc3n2)CC1 | – | – | – | – | – | 2.1 | – | MST [9]: 6.94 days; MST ([3]; 20 mg/kg): 0.5 days and 0.7 days; No. of survivals [10]: 1; No. of survivals [11]: 5; No. of survivals [4]: 5; MST ([5]; 80 mg/kg): 6.7 days and 6.9 days
13 | CCN(CC)CCCC(C)Nc1nc(Nc2cc(OC)c(OC)c(OC)c2)c2ccccc2n1 (stereo not drawn) | 0.3 days and 0.6 days | 0.3 | -0.3 | 0.5 | – | – | – | MST ([7]; 640 mg/kg): 3.5 days and 5 days
14 | Clc1cc(Cl)cc(Nc2nc(NCCCN3CCCC3)nc3ccccc23)c1 | – | – | – | – | 1.2 | 0.4 | 0.8 | –
15 | CCN(CC)CCCNc1nc(Nc2cc(Cl)cc(Cl)c2)c2ccccc2n1 | 3 days and 2.7 days | 0.2 | 1.4 | 5 | – | – | – | No. of survivals [4]: 2; MST ([8]; 640 mg/kg): 14.5 days and 15.7 days
16 | CCN(CC)CCCNc1nc(Nc2ccc(Cl)c(Cl)c2)c2ccccc2n1 | 4.6 days and 5.2 days | 0 | 2.8 | 8.4 | – | – | – | No. of survivals [4]: 1; MST ([8]; 640 mg/kg): 9.8 days and 10.5 days
17 | CCN(CC)C1CCC(Nc2nc(Nc3ccc(Cl)c(Cl)c3)c3ccccc3n2)CC1 (stereo not drawn) | – | 0.3 | – | – | – | 0.5 | – | MST ([9]; 160 mg/kg): 17.2 days and 15.6 days; No. of survivals ([10]; 160 mg/kg): 1 and 2; No. of survivals [11]: 3; No. of survivals [4]: 5; MST ([5]; 80 mg/kg): 2.9 days and 3.1 days; MST ([6]; 320 mg/kg): 14.4 days and 14.9 days

Row | Compound | MST ([2]; 160 mg/kg) | MST [3] [days] | MST [5] [days] | MST [6] [days] | MST [7] [days] | MST [1] [days] | MST [2] [days] | also measured
18 | CCN1CCC(CNc2nc(Nc3cc(Cl)cc(Cl)c3)c3ccccc3n2)CC1 | 5.7 days and 5.9 days | – | – | – | – | 0.5 | – | MST ([3]; 20 mg/kg): 0.5 days and 0.3 days; No. of survivals ([11]; 320 mg/kg): 3 and 2; No. of survivals ([4]; 640 mg/kg): 3 and 2; MST ([5]; 80 mg/kg): 2.5 days and 2.7 days
19 | CCN1CCCC(Nc2nc(Nc3ccc(Cl)c(Cl)c3)c3ccccc3n2)C1 (stereo not drawn) | 0.9 days and 2.2 days | 0.9 | 0.9 | 2.9 | – | – | – | MST ([7]; 640 mg/kg): 9.5 days and 10.6 days
20 | Clc1ccc(Nc2nc(NCCCN3CCCCC3)nc3ccccc23)cc1Cl | – | -0.2 | -0.4 | 1.6 | – | – | – | MST ([7]; 640 mg/kg): 3 days and 4.1 days
21 | c1ccc2c(NCCCN3CCCC3)nc(Nc3nccs3)nc2c1 | – | – | – | – | – | 0.3 | 0.3 | No. of toxic deaths [12]: 3; MST [8]: 0.9 days
22 | CCN1CCCC(Nc2nc(Nc3ccc(C(F)(F)F)cc3)c3ccccc3n2)C1 (stereo not drawn) | 0.2 days and 0.3 days | – | -0.1 | 0.9 | – | – | – | MST ([7]; 640 mg/kg): 3.4 days and 3.1 days
23 | CN1CCCC1CCNc1nc(Nc2ccc(C(F)(F)F)cc2)c2ccccc2n1 (stereo not drawn) | 1.5 days and 1.7 days | 0.3 | 0.5 | – | 7.7 | 0.3 | – | MST ([6]; 320 mg/kg): 4.1 days and 4.3 days
24 | CCN(CC)C1CCC(Nc2nc(Nc3cccc(Br)c3)c3ccccc3n2)CC1 (stereo not drawn) | 10.3 days and 10.1 days | – | – | – | – | – | – | MST ([1]; 40 mg/kg): 0.3 days and 0.5 days; MST ([3]; 20 mg/kg): 0.3 days and 0.5 days; No. of survivals ([4]; 640 mg/kg): 3 and 2; MST ([5]; 80 mg/kg): 2.5 days and 2.7 days; MST ([6]; 320 mg/kg): 12.9 days and 12.7 days
25 | CCN(CC)CCCC(C)Nc1nc(Nc2ccc(Cl)c(Cl)c2)c2ccccc2n1 (stereo not drawn) | – | 0.1 | 0.3 | 1.3 | – | – | – | MST ([1]; 40 mg/kg): 0.3 days and 0.4 days; MST ([7]; 640 mg/kg): 4.7 days and 5.8 days
26 | CCN(CC)C1CCC(Nc2nc(Nc3ccc(C(F)(F)F)cc3)c3ccccc3n2)CC1 (stereo not drawn) | 9.7 days and 9.5 days | – | – | – | – | 0.5 | – | MST ([3]; 20 mg/kg): 0.5 days and 0.3 days; No. of survivals [11]: 5; No. of survivals ([4]; 640 mg/kg): 3 and 2; MST ([5]; 80 mg/kg): 0.7 days and 0.5 days
27 | FC(F)(F)c1ccc(Nc2nc(NCCCN3CCCCC3)nc3ccccc23)cc1 | – | – | – | – | 2.4 | -0.2 | -0.2 | –
28 | CCN(CC)CCCC(C)Nc1nc(Nc2ccc(C(F)(F)F)cc2)c2ccccc2n1 (stereo not drawn) | – | – | – | – | 1.6 | -0.6 | 0 | –
29 | CCN1CCCC(Nc2nc(Nc3ccc(Cl)c(Cl)c3)nc3ccc([N+](=O)[O-])cc23)C1 (stereo not drawn) | – | – | – | – | – | – | – | SD90 [13]: 34 mg/kg/day
30 | Clc1cc(Cl)cc(Nc2nc(NCCCN3CCCCC3)nc3ccccc23)c1 | – | – | – | – | 1.6 | 0.2 | 0.2 | –
31 | CCN(CC)CCNc1nc(Nc2cc(Cl)c(Cl)cc2Cl)nc2ccccc12 | – | – | – | – | 1.2 | 0.4 | 0.4 | –
32 | CCN(CC)CCCC(C)Nc1nc(Nc2cc(Cl)cc(Cl)c2)c2ccccc2n1 (stereo not drawn) | 1.1 days and 1.2 days | 0.1 | -0.1 | 3.1 | – | – | – | MST ([7]; 640 mg/kg): 4.9 days and 4.4 days
33 | CCN(CC)C1CCC(Nc2nc(Nc3ccc(SC)cc3)c3ccccc3n2)CC1 (stereo not drawn) | – | – | – | 11.7 | – | 0.7 | 5.7 | MST ([3]; 20 mg/kg): 0.5 days and 0.7 days; MST ([5]; 80 mg/kg): 1.1 days and 1.3 days
